Laboratory results from patent US9220791B2, “Bispecific intracellular delivery vehicles” (University of Washington, priority 2008, dated 2015).

Columns and labels:
Type in all cases: cell-based, human
[1] = tested on: erythrocytes; conditions: pH 5.8
Procedure: In order to assess the polymer's potential for endosomolytic activity, a membrane disruption assay was utilized to measure the capacity of the polymer to trigger pH-dependent disruption of lipid bilayer membranes as shown in FIG. 5. Whole human blood was drawn and centrifuged for plasma removal. The remaining erythrocytes were washed three times with 150 mM NaCl and resuspended into phosphate buffers corresponding to physiological (pH 7.4), early endosome (pH 6.6), and late endosome (pH 5.8) environments. The polymer (1-40 μg/mL) or 1% Triton X-100 was added to the erythrocyte suspensions and incubated for 1 hour at 37° C. Intact erythrocytes were pelleted via centrifugation, and the hemoglobin content within the supernatant was measured via absorbance at 541 nm. Percent hemolysis was determined relative to Triton X-100. Polymer hemolysis was quantified at concentrations ranging from 1-40 μg/mL relative to 1% v/v Triton X-100. This experiment was completed 2 times in triplicate, yielding similar results. The data shown represent a single experiment conducted in triplicate±standard deviation.

[2] = tested on: HeLa cells; experiment: Lactate dehydrogenase (LDH) cytotoxicity assay; conditions: HeLa cervical cancer cells
Procedure: Bioconjugate efficacy for triggering tumor cell death was determined using a lactate dehydrogenase (LDH) cytotoxicity assay. At the end of each time point, cells were washed two times with PBS and then lysed with cell lysis buffer (100 μL/well, 20 mM Tris-HCl, pH 7.5, 150 mM NaCl, 1 mM Na2EDTA, 1 mM EGTA, 1% Triton, 2.5 mM sodium pyrophosphate, 1 mM β-glycerophosphate, 1 mM sodium orthovanadate) for 1 hour at 4° C. 20 μl of lysate from each sample was diluted into 80 μl PBS, and LDH was quantified by mixing with 100 μL of the LDH substrate solution. Following a 10 minute incubation, LDH was determined by measuring absorbance at 490 nm. Percent viability was expressed relative to samples receiving no treatment.

[3] = tested on: HeLa cells; experiment: Flow cytometry evaluation of mitochondrial membrane potential (JC-1 dye); conditions: 2 hours, 10 μM peptide or equivalent conjugate or polymer alone, versus no treatment
Procedure: (§1) HeLas, human cervical carcinoma cells (ATCC CCL-2), were maintained in minimum essential media (MEM) containing L-glutamine, 1% penicillin-streptomycin, and 10% FBS. Prior to experiments, HeLas were allowed to adhere overnight in 8-well chamber slides (20,000 cells/well) for microscopy or 96-well plates (10,000 cells/well) for other assays. Polymer-peptide conjugates and controls were added in MEM with 1% FBS.
Loss of mitochondrial membrane potential, a known indicator for apoptosis, was assessed using the JC-1 dye. […] HeLas were incubated for 2 hours with 10 μM peptide or equivalent conjugate or polymer alone. JC-1 was added at a final concentration of 5 μg/mL and incubated for 15 minutes. Cells were washed 2 times with PBS, trypsinized, and resuspended in 0.5% BSA for flow cytometric analysis. Percent of cells displaying mitochondrial depolarization was quantified based on the number of green fluorescent cells that were negative for red fluorescence. Here, a significant loss of red fluorescent JC-1 aggregates and therefore a loss in mitochondrial polarization was detected following treatment with both the Antp-BH3 peptide and the polymer peptide conjugate (FIG. 8A).

[4] = tested on: caspases 3 and 7; experiment: Caspase 3/7 activity assay; conditions: HeLa, 30 minutes, 25 μM peptide (alone or as conjugate) or equivalent polymer, relative to no treatment
Procedure: as §1
Caspase 3/7 activation was measured using a commercially available assay kit. This assay utilizes a profluorescent caspase 3/7 substrate that once enzymatically cleaved becomes fluorescent allowing for determination of relative enzyme activity using a fluorescent plate reader. Here, HeLas were incubated for 30 minutes with 25 μM peptide (alone or as polymer conjugate) in addition to polymer alone in a quantity equivalent to the conjugate samples. Afterwards, a caspase 3/7 fluorigenic indicator was added directly to the culture media for each sample. Plates were shaken for 1 hour and then assayed using a fluorescent plate reader. Data were expressed as percent caspase activity relative to samples receiving no treatment.

[5] = tested on: HeLa cells; experiment: Fluorescent microscopic analysis of conjugate endosomal escape; conditions: Alexa-488 labeled peptide, 25 μM Antp-BH3, 15 minutes treatment
Procedure: as §1
An amine reactive Alexa-488 succinimidyl ester was mixed at a 1 to 1 molar ratio with the Antp-BH3 peptide in anhydrous dimethyl formamide (DMF). Unreacted fluorophore and organic solvent were removed using a PD 10 desalting column, and the fluorescently labeled peptide was lyophilized. Alexa-488 labeled Antp-BH3 was conjugated to the polymer as described above. Free peptide or polymer-peptide conjugate was applied to HeLas grown on chambered microscope slides at a concentration of 25 μM Antp-BH3. Cells were treated for 15 minutes, washed twice with PBS, and incubated in fresh media for an additional 30 minutes. The samples were washed again and fixed with 4% paraformaldehyde for 10 minutes at 37° C. Slides were mounted with ProLong Gold Antifade reagent containing DAPI and imaged using a fluorescent microscope.

Substance	hemolysis [1]	HeLa cell death / treatment effect (qualitative) [2]	increase in percent of cells exhibiting loss of mitochondrial polarity [3]	caspase 3/7 activation [4]	peptide intracellular localization (fluorescence pattern) [5]
Poly[HPMA]-b-[(PAA)(BMA)(DMAEMA)] [diblock copolymer]	significant increase in hemolysis	–	–	–	–
NH2-RQIKIWFQNRRMKWKKMGQVGRQLAIIGDDINRRYDSC-COOH (H-RQIKIWFQNRRMKWKKMGQVGRQLAIIGDDINRRYDSC-OH) [Antp-BH3 peptide, cell internalizing form of the Bak-BH3 peptide fused to Antennapedia peptide, carboxy-terminal cysteine]	–	negligible treatment effect	approximately 4 fold	approximately 2.5 fold	punctate staining
